Experimental data: PubChem BioAssay AID330 (DTP/NCI, 2004)
Several values for one entry are separate records, joined by “and”; a condition that tells them apart may be missing. Equal values may be shown once. Toxic doses and inconclusive results are not listed. The calls were made as follows: active = survival T/C of 150% or more; inactive = T/C below 125% in these data.

Test system: P388 leukemia ip, CD2F1 mice, survival T/C
Assay: NCI In Vivo Anticancer Drug Screen. Data for tumor model P388 Leukemia (intraperitoneal) in CD2F1 (CDF1) mice
Details: endpoint: median survival time, higher = longer survival
In short: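 Mice carrying the transplanted tumor received test compound or vehicle. Survival was recorded in each group, and the value is the treated-group measurement divided by that of the vehicle-treated control group.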

[1] = dose: 25.0 mg/kg/injection, schedule: Q01DX009 (ip), vehicle: saline with Tween-80
[2] = dose: 60.0 mg/kg/injection, schedule: Q01DX005 (ip), vehicle: saline with Tween-80
[3] = dose: 120.0 mg/kg/injection, schedule: Q01DX005 (ip), vehicle: saline with Tween-80
[4] = dose: 100.0 mg/kg/injection, schedule: Q01DX009 (ip), vehicle: saline with Tween-80
[5] = dose: 50.0 mg/kg/injection, schedule: Q01DX009 (ip), vehicle: saline
[6] = dose: 100.0 mg/kg/injection, schedule: Q01DX009 (ip), vehicle: saline
[7] = dose: 25.0 mg/kg/injection, schedule: Q01DX005 (ip), vehicle: Klucel (hydroxypropylcellulose) (HPC)
[8] = dose: 50.0 mg/kg/injection, schedule: Q01DX005 (ip), vehicle: Klucel (hydroxypropylcellulose) (HPC)
[9] = dose: 100.0 mg/kg/injection, schedule: Q01DX005 (ip), vehicle: Klucel (hydroxypropylcellulose) (HPC)
[10] = dose: 200.0 mg/kg/injection, schedule: Q01DX005 (ip), vehicle: Klucel (hydroxypropylcellulose) (HPC)
[11] = dose: 200.0 mg/kg/injection, schedule: Q01DX009 (ip), vehicle: saline

Measured: T/C

O=c1cc(O)n(C2=NCCN2)[nH]1
inactive: dose: 60.0 mg/kg/injection, schedule: Q01DX005 (ip), vehicle: suspension in saline 97 % of control | dose: 120.0 mg/kg/injection, schedule: Q01DX005 (ip), vehicle: suspension in saline 97 % of control | dose: 240.0 mg/kg/injection, schedule: Q01DX005 (ip), vehicle: suspension in saline 105 % of control

O=C(O)c1c(C(=O)O)c(C(=O)O)c(C(=O)O)c(C(=O)O)c1C(=O)O
inactive: dose: 25.0 mg/kg/injection, schedule: Q01DX009 (ip), vehicle: water 111 % of control | dose: 50.0 mg/kg/injection, schedule: Q01DX009 (ip), vehicle: water 106 % of control | dose: 100.0 mg/kg/injection, schedule: Q01DX009 (ip), vehicle: water 109 % of control | dose: 200.0 mg/kg/injection, schedule: Q01DX009 (ip), vehicle: water 101 % of control

CC1OC(CC(=O)O)CC2=C1C(=O)c1c(O)cccc1C2=O (stereo not given)
inactive: dose: 3.13 mg/kg/injection, schedule: Q01DX009 (ip), vehicle: saline with Tween-80 94 % of control | dose: 6.25 mg/kg/injection, schedule: Q01DX009 (ip), vehicle: saline with Tween-80 115 % of control and 117 % of control | dose: 12.5 mg/kg/injection, schedule: Q01DX009 (ip), vehicle: saline with Tween-80 110 % of control and 115 % of control | [1] 101 % of control and 114 % of control

CCOC1OCN(C(C)C)CC1(C)C (stereo not given)
inactive: [1] 98 % of control

Cc1ccc(OC/C=N\N=C(N)N)cc1C
inactive: [2] 101 % of control | [3] 93 % of control

CSc1cccc2c(NCCCCCCCCNc3c4ccccc4nc4c(SC)cccc34)c3ccccc3nc12
inactive: dose: 0.32 mg/kg/injection, schedule: Q01DX009 (ip), vehicle: other 101 % of control | dose: 0.63 mg/kg/injection, schedule: Q01DX009 (ip), vehicle: other 104 % of control | dose: 1.25 mg/kg/injection, schedule: Q01DX009 (ip), vehicle: other 113 % of control | dose: 2.5 mg/kg/injection, schedule: Q01DX009 (ip), vehicle: other 113 % of control | dose: 5.0 mg/kg/injection, schedule: Q01DX009 (ip), vehicle: other 109 % of control | dose: 10.0 mg/kg/injection, schedule: Q01DX009 (ip), vehicle: other 111 % of control

CC1C(c2ccccc2)OCCN1C(=S)NC(=O)c1ccccc1 (stereo not given)
inactive: dose: 25.0 mg/kg/injection, schedule: Q01DX009 (ip), vehicle: Klucel (hydroxypropylcellulose) (HPC) 102 % of control | dose: 50.0 mg/kg/injection, schedule: Q01DX009 (ip), vehicle: Klucel (hydroxypropylcellulose) (HPC) 101 % of control | dose: 100.0 mg/kg/injection, schedule: Q01DX009 (ip), vehicle: Klucel (hydroxypropylcellulose) (HPC) 100 % of control | dose: 200.0 mg/kg/injection, schedule: Q01DX009 (ip), vehicle: Klucel (hydroxypropylcellulose) (HPC) 111 % of control

C=CCCCn1nc(-c2ccccc2)c(-c2ccccc2)n1
inactive: dose: 50.0 mg/kg/injection, schedule: Q01DX009 (ip), vehicle: saline with Tween-80 106 % of control | [4] 100 % of control | dose: 200.0 mg/kg/injection, schedule: Q01DX009 (ip), vehicle: saline with Tween-80 103 % of control

CCOC(=O)C(=CC=C(C(=O)OCC)C(=O)OCC)C(=O)OCC
inactive: dose: 100.0 mg/kg/injection, schedule: Q04DX002 (ip), vehicle: saline with Tween-80 112 % of control | dose: 200.0 mg/kg/injection, schedule: Q04DX002 (ip), vehicle: saline with Tween-80 113 % of control | dose: 400.0 mg/kg/injection, schedule: Q04DX002 (ip), vehicle: saline with Tween-80 115 % of control

COc1ccc(-c2cn3c([nH]c(=O)c4cc(Br)ccc43)c2C#N)cc1
inactive: [2] 91 % of control | [3] 93 % of control | dose: 240.0 mg/kg/injection, schedule: Q01DX005 (ip), vehicle: saline with Tween-80 87 % of control

c1ccc(Cn2cc(CCc3ccncc3)c3ccccc32)cc1
inactive: dose: 25.0 mg/kg/injection, schedule: Q01DX009 (ip), vehicle: saline 100 % of control | [5] 100 % of control | [6] 100 % of control

CSc1nc(N)c(C(=O)c2sc(SC)nc2N)s1
inactive: dose: 12.5 mg/kg/injection, schedule: Q01DX005 (ip), vehicle: Klucel (hydroxypropylcellulose) (HPC) 100 % of control | [7] 92 % of control | [8] 90 % of control and 97 % of control

CCN1C(=O)NS(=O)(=O)c2ccccc21
inactive: dose: 50.0 mg/kg/injection, schedule: Q01DX005 (ip), vehicle: saline with Tween-80 94 % of control | dose: 100.0 mg/kg/injection, schedule: Q01DX005 (ip), vehicle: saline with Tween-80 107 % of control | dose: 200.0 mg/kg/injection, schedule: Q01DX005 (ip), vehicle: saline with Tween-80 97 % of control

Nc1ccc2[nH]c(=S)[nH]c2c1
inactive: dose: 10.0 mg/kg/injection, schedule: Q01DX009 (ip), vehicle: saline with Tween-80 100 % of control | dose: 20.0 mg/kg/injection, schedule: Q01DX009 (ip), vehicle: saline with Tween-80 104 % of control | dose: 40.0 mg/kg/injection, schedule: Q01DX009 (ip), vehicle: saline with Tween-80 100 % of control | [4] 95 % of control | dose: 400.0 mg/kg/injection, schedule: Q01DX009 (ip), vehicle: saline with Tween-80 95 % of control

O=c1c2c(oc3cc(OCC4CO4)ccc13)CCC2 (stereo not given)
inactive: [8] 93 % of control | [9] 88 % of control | [10] 95 % of control

c1cc2nc(-c3ccc4oc(C5=NCCN5)cc4c3)[nH]c2cc1C1=NCCN1
inactive: dose: 12.5 mg/kg/injection, schedule: Q01DX005 (ip), vehicle: saline 98 % of control | dose: 25.0 mg/kg/injection, schedule: Q01DX005 (ip), vehicle: saline 113 % of control | dose: 50.0 mg/kg/injection, schedule: Q01DX005 (ip), vehicle: saline 113 % of control and 118 % of control

N#CCCOCC(COCCC#N)OCCC#N
inactive: [5] 105 % of control | [6] 92 % of control | [11] 102 % of control

COc1ccc(/C=C2\CCCC3=C2N=C2SCC(=O)N2C3c2ccc(OC)cc2)cc1 (stereo not given)
inactive: dose: 25.0 mg/kg/injection, schedule: Q04DX003 (ip), vehicle: saline with Tween-80 98 % of control | dose: 50.0 mg/kg/injection, schedule: Q04DX003 (ip), vehicle: saline with Tween-80 92 % of control | dose: 100.0 mg/kg/injection, schedule: Q04DX003 (ip), vehicle: saline with Tween-80 90 % of control

COc1ccc(CC2c3cc(OC)c(OC)cc3CCN2C(C)=O)cc1OC (stereo not given)
inactive: dose: 3.0 mg/kg/injection, schedule: Q01DX005 (ip), vehicle: saline with Tween-80 99 % of control | dose: 6.0 mg/kg/injection, schedule: Q01DX005 (ip), vehicle: saline with Tween-80 102 % of control | dose: 12.0 mg/kg/injection, schedule: Q01DX005 (ip), vehicle: saline with Tween-80 95 % of control

COc1ccc2ccc3c(c2c1)C(=O)C(CC(N)=O)C3 (stereo not given)
inactive: dose: 12.5 mg/kg/injection, schedule: Q01DX009 (ip), vehicle: distilled water + Tween-80 97 % of control | dose: 25.0 mg/kg/injection, schedule: Q01DX009 (ip), vehicle: distilled water + Tween-80 93 % of control | dose: 50.0 mg/kg/injection, schedule: Q01DX009 (ip), vehicle: distilled water + Tween-80 92 % of control | dose: 200.0 mg/kg/injection, schedule: Q01DX009 (ip), vehicle: distilled water + Tween-80 93 % of control

Cn1c([N+](=O)[O-])cnc1CSc1ccc(C#N)cc1
inactive: [7] 105 % of control | [8] 104 % of control | [9] 92 % of control | [10] 114 % of control

CC[C@@]1(O)C[C@H](OC2CC(N(C)C)C(O)C(C)O2)c2c(cc3c(c2O)C(=O)c2c(O)ccc(O)c2C3=O)[C@H]1C(=O)OC (stereo not given in full)
inactive: dose: 1.56 mg/kg/injection, schedule: Q01DX009 (ip), vehicle: other 110 % of control | dose: 3.13 mg/kg/injection, schedule: Q01DX009 (ip), vehicle: other 123 % of control | dose: 6.25 mg/kg/injection, schedule: Q01DX009 (ip), vehicle: other 118 % of control

CN(Cc1ccccc1)C(c1ccccc1)C1(c2ccccc2)Cc2ccccc2C(=O)O1 (stereo not given)
inactive: [8] 87 % of control | [9] 87 % of control | [10] 87 % of control

CCOC(=O)N1C=CC(c2ccccc2)=CC2ON=C(c3c(C)cc(C)cc3C)N21 (stereo not given)
inactive: [5] 106 % of control | [6] 108 % of control | [11] 99 % of control

OC1C=CC2C(CC1)C1(c3ccccc3)OC2(c2ccccc2)c2ccccc21 (stereo not given)
inactive: [8] 100 % of control | [9] 98 % of control | [10] 99 % of control

CNC(C)C#N (stereo not given)
inactive: dose: 3.75 mg/kg/injection, schedule: Q01DX005 (ip), vehicle: saline 94 % of control | dose: 7.5 mg/kg/injection, schedule: Q01DX005 (ip), vehicle: saline 100 % of control | dose: 15.0 mg/kg/injection, schedule: Q01DX005 (ip), vehicle: saline 102 % of control
